The source of these data is ChEMBL document CHEMBL5465560, “Selectivity Literature for EUbOPEN Chemogenomic Library” (2024).

For assay [1], the target named is Dual specificity protein kinase CLK1 (Homo sapiens, UniProt P49759). Briefly: Selectivity interaction (ProQinase) EUB0000171b CLK1.
Assay [2] concerns the target Cyclin-dependent kinase 16 (Homo sapiens) (UniProt Q00536). Briefly: Selectivity interaction (KinomeScan (DiscoverX)) EUB0000092b CDK16. Particulars: at 10 µM.
The target of assay [3] is T1, Serine/threonine-protein kinase MAK (Homo sapiens) (UniProt P20794).
T1 sequence (whole entry): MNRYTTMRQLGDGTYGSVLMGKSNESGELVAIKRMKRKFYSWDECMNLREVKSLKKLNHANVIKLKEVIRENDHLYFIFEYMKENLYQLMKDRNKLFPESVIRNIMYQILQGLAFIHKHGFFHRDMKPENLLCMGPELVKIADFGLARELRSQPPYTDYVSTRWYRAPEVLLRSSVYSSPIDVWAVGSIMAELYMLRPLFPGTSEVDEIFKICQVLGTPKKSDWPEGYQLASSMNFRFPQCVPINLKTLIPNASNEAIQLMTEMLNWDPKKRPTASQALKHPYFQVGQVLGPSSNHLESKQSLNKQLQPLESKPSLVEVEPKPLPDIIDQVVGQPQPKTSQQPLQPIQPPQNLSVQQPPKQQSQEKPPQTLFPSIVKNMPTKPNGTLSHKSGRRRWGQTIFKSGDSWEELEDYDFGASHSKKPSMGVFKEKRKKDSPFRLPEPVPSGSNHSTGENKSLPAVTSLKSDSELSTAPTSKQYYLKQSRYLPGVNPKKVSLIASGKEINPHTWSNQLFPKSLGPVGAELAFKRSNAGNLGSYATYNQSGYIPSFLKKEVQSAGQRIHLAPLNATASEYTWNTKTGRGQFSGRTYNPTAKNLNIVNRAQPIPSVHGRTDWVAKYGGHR
Nature of the assay: Selectivity interaction (KinomeScan (DiscoverX)) EUB0001049a MAK. The following applies: at 1 µM.

Assay [4] concerns the target 5'-AMP-activated protein kinase catalytic subunit alpha-2 (Homo sapiens) (UniProt P54646). Briefly: Selectivity interaction (KinomeScan (DiscoverX)) EUB0001049a PRKAA2. Particulars: at 1 µM.
The target of another assay is Aurora kinase B (Homo sapiens, UniProt Q96GD4). Briefly: Selectivity interaction (KinomeScan (DiscoverX)) EUB0001550a AURKB. The following applies: at 1 µM.
Sequence of Aurora kinase B (Q96GD4 whole entry): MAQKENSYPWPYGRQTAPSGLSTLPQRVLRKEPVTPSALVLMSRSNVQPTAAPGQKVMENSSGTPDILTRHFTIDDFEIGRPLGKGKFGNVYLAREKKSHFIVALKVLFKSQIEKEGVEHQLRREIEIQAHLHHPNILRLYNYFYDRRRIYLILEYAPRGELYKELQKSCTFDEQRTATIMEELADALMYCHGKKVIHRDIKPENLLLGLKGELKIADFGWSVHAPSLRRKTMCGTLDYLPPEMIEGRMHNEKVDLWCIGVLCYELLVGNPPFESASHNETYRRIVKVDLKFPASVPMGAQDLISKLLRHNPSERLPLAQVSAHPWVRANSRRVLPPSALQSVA
In assay [5] the target is Protein kinase C eta type (Homo sapiens) (UniProt P24723). Nature of the assay: Selectivity interaction (Kinase screening (Nanosyn)) EUB0000604a PRKCH.
Sequence of Protein kinase C eta type (Homo sapiens) (P24723 whole entry): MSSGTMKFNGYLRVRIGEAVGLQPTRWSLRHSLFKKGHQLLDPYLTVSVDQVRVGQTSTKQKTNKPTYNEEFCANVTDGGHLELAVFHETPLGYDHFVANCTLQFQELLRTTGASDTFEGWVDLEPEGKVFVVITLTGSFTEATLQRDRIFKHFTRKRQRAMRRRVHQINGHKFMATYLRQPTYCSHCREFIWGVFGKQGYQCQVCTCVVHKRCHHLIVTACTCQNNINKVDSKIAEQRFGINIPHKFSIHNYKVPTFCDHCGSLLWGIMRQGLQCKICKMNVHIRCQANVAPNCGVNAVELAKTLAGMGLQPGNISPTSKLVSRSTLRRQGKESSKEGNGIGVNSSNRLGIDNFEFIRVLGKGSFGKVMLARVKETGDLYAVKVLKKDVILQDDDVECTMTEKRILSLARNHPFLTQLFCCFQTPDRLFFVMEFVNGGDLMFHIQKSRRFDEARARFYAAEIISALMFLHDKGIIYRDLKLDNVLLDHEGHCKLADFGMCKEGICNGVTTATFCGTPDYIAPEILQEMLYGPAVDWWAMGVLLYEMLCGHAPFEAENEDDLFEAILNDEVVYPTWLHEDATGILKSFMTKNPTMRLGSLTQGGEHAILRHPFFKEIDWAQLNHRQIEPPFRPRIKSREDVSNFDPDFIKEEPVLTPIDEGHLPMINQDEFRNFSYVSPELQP
For assay [6], the target named is T2, Serine/threonine-protein kinase Nek11 (Homo sapiens) (UniProt Q8NG66).
T2 sequence (whole entry): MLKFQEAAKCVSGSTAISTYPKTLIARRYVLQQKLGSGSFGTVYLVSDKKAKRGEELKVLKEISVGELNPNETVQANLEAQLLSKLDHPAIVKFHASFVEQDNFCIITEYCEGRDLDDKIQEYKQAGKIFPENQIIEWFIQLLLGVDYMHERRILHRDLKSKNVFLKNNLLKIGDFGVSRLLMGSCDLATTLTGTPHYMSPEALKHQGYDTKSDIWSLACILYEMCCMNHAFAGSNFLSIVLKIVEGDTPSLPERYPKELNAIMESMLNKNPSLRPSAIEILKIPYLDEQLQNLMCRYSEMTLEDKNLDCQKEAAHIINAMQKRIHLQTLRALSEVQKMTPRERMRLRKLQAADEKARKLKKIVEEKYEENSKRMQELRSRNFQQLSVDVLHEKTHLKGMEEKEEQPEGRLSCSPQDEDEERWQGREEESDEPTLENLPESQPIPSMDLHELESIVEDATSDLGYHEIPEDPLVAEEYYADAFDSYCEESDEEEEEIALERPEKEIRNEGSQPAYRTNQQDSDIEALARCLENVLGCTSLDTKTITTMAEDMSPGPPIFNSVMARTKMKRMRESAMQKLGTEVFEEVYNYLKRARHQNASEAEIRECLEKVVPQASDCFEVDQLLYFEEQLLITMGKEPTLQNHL
Briefly: Selectivity interaction (KinomeScan (DiscoverX)) EUB0000607a NEK11. Particulars: at 10 µM.

For another assay, the target named is SRSF protein kinase 1 (Homo sapiens, UniProt Q96SB4). Nature of the assay: Selectivity interaction (KinomeScan (DiscoverX)) EUB0000595a SRPK1. Particulars: at 10 µM.
Sequence of SRSF protein kinase 1 (Q96SB4 whole entry): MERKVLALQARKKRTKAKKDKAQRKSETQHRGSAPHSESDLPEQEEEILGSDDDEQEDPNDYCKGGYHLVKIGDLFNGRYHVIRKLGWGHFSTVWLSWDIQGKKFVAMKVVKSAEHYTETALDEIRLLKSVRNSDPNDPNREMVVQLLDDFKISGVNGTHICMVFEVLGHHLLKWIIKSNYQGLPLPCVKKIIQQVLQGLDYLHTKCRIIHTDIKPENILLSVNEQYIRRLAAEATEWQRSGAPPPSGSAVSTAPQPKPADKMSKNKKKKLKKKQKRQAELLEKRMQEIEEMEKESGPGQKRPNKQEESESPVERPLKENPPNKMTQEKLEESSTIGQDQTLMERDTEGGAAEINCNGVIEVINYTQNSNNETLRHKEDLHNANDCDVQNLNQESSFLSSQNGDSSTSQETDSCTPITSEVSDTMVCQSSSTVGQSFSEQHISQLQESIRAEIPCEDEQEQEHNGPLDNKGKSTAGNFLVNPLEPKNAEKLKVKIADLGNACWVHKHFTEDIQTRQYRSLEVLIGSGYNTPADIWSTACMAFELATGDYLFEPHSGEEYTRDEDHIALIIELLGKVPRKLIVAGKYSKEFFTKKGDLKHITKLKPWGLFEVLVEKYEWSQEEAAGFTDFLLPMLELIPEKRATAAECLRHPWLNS
For assay [7], the target named is T3, Serine/threonine-protein kinase Nek1 (Homo sapiens) (UniProt Q96PY6).
T3 sequence (whole entry): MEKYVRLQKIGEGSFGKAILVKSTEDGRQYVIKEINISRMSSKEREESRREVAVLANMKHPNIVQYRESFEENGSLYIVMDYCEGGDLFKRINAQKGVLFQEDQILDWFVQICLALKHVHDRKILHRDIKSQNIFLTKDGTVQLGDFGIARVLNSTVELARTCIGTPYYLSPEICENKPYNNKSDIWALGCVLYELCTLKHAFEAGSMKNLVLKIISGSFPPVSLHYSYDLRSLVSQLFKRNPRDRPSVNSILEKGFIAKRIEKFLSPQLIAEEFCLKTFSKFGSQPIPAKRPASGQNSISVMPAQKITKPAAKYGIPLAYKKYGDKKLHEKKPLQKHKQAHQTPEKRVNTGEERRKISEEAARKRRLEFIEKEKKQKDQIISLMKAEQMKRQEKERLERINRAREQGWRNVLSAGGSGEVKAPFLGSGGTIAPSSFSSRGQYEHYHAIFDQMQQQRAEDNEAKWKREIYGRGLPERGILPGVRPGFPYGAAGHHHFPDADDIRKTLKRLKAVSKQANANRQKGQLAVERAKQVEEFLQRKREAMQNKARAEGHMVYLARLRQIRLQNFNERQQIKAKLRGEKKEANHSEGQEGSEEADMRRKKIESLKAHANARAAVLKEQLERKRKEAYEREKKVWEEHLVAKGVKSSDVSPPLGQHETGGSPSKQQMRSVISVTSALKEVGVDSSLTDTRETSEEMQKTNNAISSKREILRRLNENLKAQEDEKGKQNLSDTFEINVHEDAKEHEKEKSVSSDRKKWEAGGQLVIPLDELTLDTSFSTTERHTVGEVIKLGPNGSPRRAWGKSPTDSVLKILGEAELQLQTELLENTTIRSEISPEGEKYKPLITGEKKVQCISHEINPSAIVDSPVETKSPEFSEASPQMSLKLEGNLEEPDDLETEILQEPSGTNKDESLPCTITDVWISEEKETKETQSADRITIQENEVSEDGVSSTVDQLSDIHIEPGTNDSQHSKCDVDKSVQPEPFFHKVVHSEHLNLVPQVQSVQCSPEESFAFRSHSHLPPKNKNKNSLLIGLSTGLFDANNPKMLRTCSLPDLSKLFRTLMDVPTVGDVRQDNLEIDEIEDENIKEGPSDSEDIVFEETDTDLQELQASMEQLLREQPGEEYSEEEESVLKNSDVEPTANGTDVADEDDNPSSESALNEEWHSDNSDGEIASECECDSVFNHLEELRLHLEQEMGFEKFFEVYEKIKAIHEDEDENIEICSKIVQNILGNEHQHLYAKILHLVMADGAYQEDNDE
Particulars: at 10 µM.

Sequence of Dual specificity protein kinase CLK1 (P49759 whole entry, looked up): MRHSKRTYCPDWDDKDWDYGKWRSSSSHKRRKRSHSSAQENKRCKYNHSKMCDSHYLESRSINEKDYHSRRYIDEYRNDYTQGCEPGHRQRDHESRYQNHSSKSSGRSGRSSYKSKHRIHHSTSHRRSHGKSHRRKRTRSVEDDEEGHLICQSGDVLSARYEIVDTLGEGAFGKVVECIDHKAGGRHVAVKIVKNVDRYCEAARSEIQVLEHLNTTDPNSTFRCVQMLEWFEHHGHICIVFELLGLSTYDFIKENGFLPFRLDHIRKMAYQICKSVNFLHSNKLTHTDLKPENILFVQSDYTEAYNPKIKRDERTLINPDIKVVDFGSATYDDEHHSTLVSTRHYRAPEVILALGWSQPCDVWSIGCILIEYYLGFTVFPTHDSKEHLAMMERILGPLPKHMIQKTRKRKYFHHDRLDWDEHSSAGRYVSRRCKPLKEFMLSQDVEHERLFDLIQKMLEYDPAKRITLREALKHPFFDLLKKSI
Sequence of 5'-AMP-activated protein kinase catalytic subunit alpha-2 (Homo sapiens) (P54646 whole entry, looked up): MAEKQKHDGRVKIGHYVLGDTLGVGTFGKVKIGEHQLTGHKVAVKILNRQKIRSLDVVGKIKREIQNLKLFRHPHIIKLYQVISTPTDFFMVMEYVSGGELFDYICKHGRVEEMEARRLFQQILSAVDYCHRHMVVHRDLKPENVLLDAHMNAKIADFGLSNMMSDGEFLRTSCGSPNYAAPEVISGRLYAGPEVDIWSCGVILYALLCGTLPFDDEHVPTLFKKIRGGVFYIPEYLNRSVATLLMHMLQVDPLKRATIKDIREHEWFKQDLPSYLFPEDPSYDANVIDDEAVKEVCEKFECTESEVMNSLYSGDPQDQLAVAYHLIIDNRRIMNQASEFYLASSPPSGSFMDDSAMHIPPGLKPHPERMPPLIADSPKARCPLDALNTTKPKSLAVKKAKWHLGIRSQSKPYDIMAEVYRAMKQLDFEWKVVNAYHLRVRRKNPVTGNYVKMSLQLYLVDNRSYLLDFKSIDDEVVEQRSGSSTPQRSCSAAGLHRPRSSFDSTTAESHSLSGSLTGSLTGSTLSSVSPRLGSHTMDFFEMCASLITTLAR
Sequence of Cyclin-dependent kinase 16 (Homo sapiens) (Q00536 whole entry): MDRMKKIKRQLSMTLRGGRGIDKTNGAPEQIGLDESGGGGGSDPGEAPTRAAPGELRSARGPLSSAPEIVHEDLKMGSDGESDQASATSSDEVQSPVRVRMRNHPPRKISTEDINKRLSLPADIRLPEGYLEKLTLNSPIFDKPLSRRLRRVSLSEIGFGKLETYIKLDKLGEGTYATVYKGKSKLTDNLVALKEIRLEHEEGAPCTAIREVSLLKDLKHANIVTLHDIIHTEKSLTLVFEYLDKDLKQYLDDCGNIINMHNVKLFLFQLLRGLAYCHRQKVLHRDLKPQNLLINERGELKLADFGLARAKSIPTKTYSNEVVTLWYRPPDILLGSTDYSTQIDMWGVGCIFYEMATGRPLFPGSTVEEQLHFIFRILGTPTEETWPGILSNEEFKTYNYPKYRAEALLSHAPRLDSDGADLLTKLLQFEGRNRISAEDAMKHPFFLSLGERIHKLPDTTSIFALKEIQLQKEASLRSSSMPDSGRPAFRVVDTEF

As to `C=CC(=O)Nc1cccc(C(=O)Nc2ccc(Nc3cc(-c4[nH]c(SC)nc4C)ccn3)cc2)c1`, the % of control amounted to 67% in [1] (at 1 µM) and 37% in [1] (at 5 µM).

In turn, `CCC(=O)N1CCN(c2ccc(-n3c(=O)ccc4cnc5ccc(-c6cnc7ccccc7c6)cc5c43)cc2C(F)(F)F)CC1` returned a % of control in assay [2] of 91%.

As to `COc1cc(Nc2nc(C)cc(-c3cnn4nc(OC)ccc34)n2)cc(C(F)(F)F)c1`, the figures for the % of control in assay [3] and in assay [4] were 84% and 100%, respectively.

As to `CN(C)CC#Cc1ccc2[nH]c3c(c2c1)-c1nc(N)ncc1CCC3`, the % of control on Aurora kinase B was 23%.

Consider `Cc1cnc(Nc2ccc(F)cc2Cl)nc1-c1c[nH]c(C(=O)N[C@H](CO)c2cccc(Cl)c2)c1`, for which the % of inhibition in assay [5] turned out to be 2%.

With `CNC(=O)Nc1ccc(-c2nc(N3CC4CCC(C3)O4)c3cnn(C4CCC5(CC4)OCCO5)c3n2)cc1`, the % of control in assay [6] stood at 99%.

Consider `COCC(=O)NC/C=C/c1ccc2ncnc(Nc3ccc(Oc4ccc(C)nc4)c(C)c3)c2c1` [CP-724714], for which the % of control on SRSF protein kinase 1 was found to be 100%; in assay [7] it was 83%.
